Like-named read-outs stand apart in the source and are kept apart here.
Molecular target: T1, Rhesus PDE2A3 (Macaca mulatta, UniProt B3VTJ2)
T1 construct: made in house; host or cells: AD293 cells, transient transfection, pcDNA3.3-TOPO; lysate supernatant used as enzyme
T1 sequence (B3VTJ2 1-941): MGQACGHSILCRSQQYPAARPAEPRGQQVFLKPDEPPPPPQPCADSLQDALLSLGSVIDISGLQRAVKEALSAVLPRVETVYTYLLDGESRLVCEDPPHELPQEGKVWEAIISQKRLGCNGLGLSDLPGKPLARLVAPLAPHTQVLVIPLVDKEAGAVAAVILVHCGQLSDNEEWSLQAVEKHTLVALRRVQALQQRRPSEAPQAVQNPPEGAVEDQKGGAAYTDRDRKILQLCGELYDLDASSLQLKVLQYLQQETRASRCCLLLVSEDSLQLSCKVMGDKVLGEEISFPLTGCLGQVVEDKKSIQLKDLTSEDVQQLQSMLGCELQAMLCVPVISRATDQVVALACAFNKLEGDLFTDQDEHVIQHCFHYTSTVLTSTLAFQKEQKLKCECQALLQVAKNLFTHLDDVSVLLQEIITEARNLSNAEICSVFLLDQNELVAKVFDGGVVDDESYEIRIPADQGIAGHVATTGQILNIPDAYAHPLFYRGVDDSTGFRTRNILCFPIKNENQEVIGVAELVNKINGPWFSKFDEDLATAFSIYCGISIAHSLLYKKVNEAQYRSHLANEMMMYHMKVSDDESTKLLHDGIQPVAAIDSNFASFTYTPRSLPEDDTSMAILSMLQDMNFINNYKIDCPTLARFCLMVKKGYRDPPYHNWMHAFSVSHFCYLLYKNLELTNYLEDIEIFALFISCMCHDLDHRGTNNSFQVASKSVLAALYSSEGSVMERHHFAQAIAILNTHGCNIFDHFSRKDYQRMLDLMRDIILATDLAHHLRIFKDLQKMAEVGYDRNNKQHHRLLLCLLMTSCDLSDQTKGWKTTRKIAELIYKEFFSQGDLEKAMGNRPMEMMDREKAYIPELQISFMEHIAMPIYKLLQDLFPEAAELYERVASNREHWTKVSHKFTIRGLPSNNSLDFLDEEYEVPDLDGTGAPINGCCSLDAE
Assay: PDE2 fluorescence polarization (IMAP FP) inhibition assay, rhesus enzyme
Format: biochemical, rhesus macaque
Outline: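 Lysate of AD293 cells transiently expressing rhesus PDE2A3, diluted for ~20% substrate conversion, with 50 nM FAM-cAMP and 1 uM cGMP activator in pH 7.2 Tris/MgCl2 buffer, 60 min at room temperature.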

[1] = Lab B, read-out: Rhesus PDE2 Ki (nM) Lab B
[2] = Lab A, read-out: Rhesus PDE2 Ki (nM) Lab A

SMILES | Ki [1] | Ki [2]
COc1ccc(Cc2nc(-c3cnn(C(C)c4ccc(C(F)(F)F)cc4F)c3)cc(=O)[nH]2)cc1OC (single isomer, unassigned) [Example 66, (R)- or (S)-2-(3,4-dimethoxybenzyl)-6-(1-(1-(2-fluoro-4-(trifluoromethyl)phenyl)ethyl)-1H-pyrazol-4-yl)pyrimidin-4(3H)-one] | 0.8 nM | –
CCc1ccc(C(C)n2cc(-c3cc(=O)[nH]c(C)n3)cn2)c(F)c1 (single isomer, unassigned) [Example 101, (R)- or (S)-6-(1-(1-(4-ethyl-2-fluorophenyl)ethyl)-1H-pyrazol-4-yl)-2-methylpyrimidin-4(3H)-one] | – | 25.4 nM
Cc1nc(-c2cn(C(C)c3ccc(C(F)(F)F)cc3)nc2C)cc(=O)[nH]1 (stereo not drawn) [Example 80, 2-methyl-6-(3-methyl-1-(1-(4-(trifluoromethyl)phenyl)ethyl)-1H-pyrazol-4-yl)pyrimidin-4(3H)-one] | 194 nM | –
Cc1nc(-n2cc(Cc3ccc(C(F)(F)F)cc3)cn2)cc(=O)[nH]1 [Example 48, 2-methyl-6-(4-(4-(trifluoromethyl)benzyl)-1H-pyrazol-1-yl)pyrimidin-4(3H)-one] | 333 nM | –
COc1cccc(Cc2nc(-c3cnn(C(C)c4ccc(C(F)(F)F)cc4F)c3)cc(=O)[nH]2)c1 (single isomer, unassigned) [Example 140, (R)- or (S)-6-(1-(1-(2-fluoro-4-(trifluoromethyl)phenyl)ethyl)-1H-pyrazol-4-yl)-2-(3-methoxybenzyl)pyrimidin-4(3H)-one] | 0.8 nM | 3 nM
Cc1nc(-c2cnn(Cc3ccc(OC(F)(F)F)cc3)c2)cc(=O)[nH]1 [Example 29, 2-Methyl-6-(1-(4-(trifluoromethoxy)benzyl)-1H-pyrazol-4-yl)pyrimidin-4(3H)-one] | 1210 nM | –
CCC(c1ccc(C(F)(F)F)cc1)c1cnn(-c2cc(=O)[nH]c(C)n2)c1 (stereo not drawn) [Example 129, 2-methyl-6-(4-(1-(4-(trifluoromethyl)phenyl)propyl)-1H-pyrazol-1-yl)pyrimidin-4(3H)-one] | 184 nM | –
COc1ccc(Cc2nc(-n3ccc(C(C)c4ccc(C(F)(F)F)cc4)n3)cc(=O)[nH]2)cc1OC (single isomer, unassigned) [Example 134, (R)- or (S)-2-(3,4-dimethoxybenzyl)-6-(3-(1-(4-(trifluoromethyl)phenyl)ethyl)-1H-pyrazol-1-yl)pyrimidin-4(3H)-one] | 110 nM | –
CC(c1ccc(C(F)(F)F)cc1F)n1cc(-c2cc(=O)[nH]c(Cc3ccccc3)n2)cn1 (stereo not drawn) [Example 35, 2-benzyl-6-(1-(1-(2-fluoro-4-(trifluoromethyl)phenyl)ethyl)-1H-pyrazol-4-yl)pyrimidin-4(3H)-one] | 17.3 nM | 38.3 nM
Cc1nc(-n2cc(C3(C)OCc4cc(C(F)(F)F)ccc43)cn2)cc(=O)[nH]1 (single isomer, unassigned) [Example 27] | 98 nM | –
Cc1nc(-c2cnn(C(C)c3ccc(C(F)(F)F)cc3F)c2)cc(=O)[nH]1 (single isomer, unassigned) [Example 136, (S)- or (R)-6-(1-(1-(2-fluoro-4-(trifluoromethyl)phenyl)ethyl)-1H-pyrazol-4-yl)-2-methylpyrimidin-4(3H)-one] | 11.1 nM | 18.3 nM
COc1ccc(Cc2nc(-c3cnn(C(C)c4ccc(C(F)(F)F)cc4F)c3)cc(=O)[nH]2)cc1OC (single isomer, unassigned) [Example 67] | 0.1 nM | 0.2 nM
Cc1nc(-c2cnn(C(C)c3ccc(C(F)(F)F)cc3)c2)cc(=O)[nH]1 (stereo not drawn) [Example 126, 2-methyl-6-(1-(1-(4-(trifluoromethyl)phenyl)ethyl)-1H-pyrazol-4-yl)pyrimidin-4(3H)-one] | 306 nM | –
Cc1nc(-n2cc(Cc3ccc(OC(F)(F)F)cc3)cn2)cc(=O)[nH]1 [Example 30, 2-Methyl-6-(4-(4-(trifluoromethoxy)benzyl)-1H-pyrazol-1-yl)pyrimidin-4(3H)-one] | 2940 nM | –
COc1cc(C(F)(F)F)ccc1[C@@H](C)n1cc(-c2cc(=O)[nH]c(C)n2)cn1 (single isomer, unassigned) [Example 2] | 35.3 nM | 43.9 nM
COc1cccc(Cc2nc(-c3cnn(C(C)c4ccc(C(F)(F)F)cc4F)c3)cc(=O)[nH]2)c1 (single isomer, unassigned) [Example 141, (S)- or (R)-6-(1-(1-(2-fluoro-4-(trifluoromethyl)phenyl)ethyl)-1H-pyrazol-4-yl)-2-(3-methoxybenzyl)pyrimidin-4(3H)-one] | 8.7 nM | 25.6 nM
Cc1nc(-n2cc(C(C)c3ccc(C(F)(F)F)cc3F)cn2)cc(=O)[nH]1 (single isomer, unassigned) [Example 53, (S)- or (R)-6-(4-(1-(2-fluoro-4-(trifluoromethyl)phenyl)ethyl)-1H-pyrazol-1-yl)-2-methylpyrimidin-4(3H)-one] | 64.5 nM | –
CCC(c1ccc(C(F)(F)F)cc1F)n1cc(-c2cc(=O)[nH]c(C)n2)cn1 (stereo not drawn) [Example 33, 6-(1-(1-(2-fluoro-4-(trifluoromethyl)phenyl)propyl)-1H-pyrazol-4-yl)-2-methylpyrimidin-4(3H)-one] | 19.7 nM | 36.6 nM
CCc1nc(-c2cnn(C(C)c3ccc(C(F)(F)F)cc3F)c2)cc(=O)[nH]1 (single isomer, unassigned) [Example 85, (R)- or (S)-2-ethyl-6-(1-(1-(2-fluoro-4-(trifluoromethyl)phenyl)ethyl)-1H-pyrazol-4-yl)pyrimidin-4(3H)-one] | – | 14.4 nM
CCCC(c1ccc(C(F)(F)F)cc1)n1cc(-c2cc(=O)[nH]c(C)n2)cn1 (stereo not drawn) [Example 154, 2-methyl-6-(1-(1-(4-(trifluoromethyl)phenyl)butyl)-1H-pyrazol-4-yl)pynmidin-4(3H)-one] | 244 nM | –
Cc1nc(-c2cnn(C(C)c3ccc(C4CC4)cc3F)c2)cc(=O)[nH]1 (single isomer, unassigned) [Example 91, (R)- or (S)-6-(1-(1-(4-cyclopropyl-2-fluorophenyl)ethyl)-1H-pyrazol-4-yl)-2-methylpyrimidin-4(3H)-one] | – | 60 nM
Cc1nc(-c2ccn(C(C)c3ccc(C(F)(F)F)cc3)n2)cc(=O)[nH]1 (single isomer, unassigned) [Example 78, (S)- or (R)-2-methyl-6-(1-{(1R)-1-[4-(trifluoromethyl)phenyl]ethyl}-1H-pyrazol-3-yl)pyrimidin-4(3H)-one] | 318 nM | –
CC(C)c1nc(-c2cnn(C(C)c3ccc(C(F)(F)F)cc3F)c2)cc(=O)[nH]1 (stereo not drawn) [Example 9, 6-(1-(1-(2-Fluoro-4-(trifluoromethyl)phenyl)ethyl)-1H-pyrazol-4-yl)-2-isopropylpyrimidin-4(3H)-one] | 30.7 nM | 58.8 nM
Cc1nc(-c2cnn(C(c3ccc(C(F)(F)F)cc3F)C(C)C)c2)cc(=O)[nH]1 (stereo not drawn) [Example 34, 6-(1-(1-(2-fluoro-4-(trifluoromethyl)phenyl)-2-methylpropyl)-1H-pyrazol-4-yl)-2-methylpynmidin-4(3H)-one] | 26.9 nM | 54.6 nM
COc1ccc(Cc2nc(-c3cnn(C(C)c4ccc(C(F)(F)F)cc4)c3)cc(=O)[nH]2)cc1OC (single isomer, unassigned) [Example 60, (R)- or (S)-2-(3,4-dimethoxybenzyl)-6-(1-(1-4-(trifluoromethyl)phenyl)ethyl)-1H-pyrazol-4-yl)pyrimidin-4(3H)-one] | 2.4 nM | 3.6 nM
COc1ccc(Cc2nc(-c3cnn(C(C)c4ccc(C(F)(F)F)cc4F)c3)cc(=O)[nH]2)cc1F (single isomer, unassigned) [Example 146, (R)- or (S)-6-(1-(1-(2-fluoro-4-(trifluoromethyl)phenyl)ethyl)-1H-pyrazol-4-yl)-2-(3-fluoro-4-methoxybenzyl)pyrimidin-4(3H)-one] | – | 31.5 nM
Cc1nc(-n2ccc([C@H](C)c3ccc(C(F)(F)F)cc3)n2)cc(=O)[nH]1 (single isomer, unassigned) [Example 5] | 285 nM | –
COc1ccc(Cc2nc(-c3cnn(C(C)c4ccc(C(F)(F)F)cc4F)c3)cc(=O)[nH]2)cc1 (single isomer, unassigned) [Example 139, (S)- or (R)-6-(1-(1-(2-fluoro-4-(trifluoromethyl)phenyl)ethyl)-1H-pyrazol-4-yl)-2-(4-methoxybenzyl)pyrimidin-4(3H)-one] | 19.1 nM | 52.1 nM
